The target of the experiment is recombinant human SAE enzyme (Homo sapiens (Human), UniProt Q9UBT2). In words: SAE HTRF enzyme assay. It is filed as biochemical. Particulars: for Percent Inhibition: Concentration 0.111 μM; for IC50: class symbols A/B/C. A digest of the protocol: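 0.11 nM SAE incubated with 0.5 μM ATP, 0.01 μM Ubc9-GST and 0.125 μM Sumo-Flag in HEPES pH 7.5, MgCl2, GSH, BSA, ±inhibitor, 105 min at 24° C. EDTA stop; Eu-cryptate anti-Flag/XL-APC anti-GST HTRF read after 2 h. Values given as single-concentration % inhibition or IC50.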
Chain of recombinant human SAE enzyme (Q9UBT2 whole entry): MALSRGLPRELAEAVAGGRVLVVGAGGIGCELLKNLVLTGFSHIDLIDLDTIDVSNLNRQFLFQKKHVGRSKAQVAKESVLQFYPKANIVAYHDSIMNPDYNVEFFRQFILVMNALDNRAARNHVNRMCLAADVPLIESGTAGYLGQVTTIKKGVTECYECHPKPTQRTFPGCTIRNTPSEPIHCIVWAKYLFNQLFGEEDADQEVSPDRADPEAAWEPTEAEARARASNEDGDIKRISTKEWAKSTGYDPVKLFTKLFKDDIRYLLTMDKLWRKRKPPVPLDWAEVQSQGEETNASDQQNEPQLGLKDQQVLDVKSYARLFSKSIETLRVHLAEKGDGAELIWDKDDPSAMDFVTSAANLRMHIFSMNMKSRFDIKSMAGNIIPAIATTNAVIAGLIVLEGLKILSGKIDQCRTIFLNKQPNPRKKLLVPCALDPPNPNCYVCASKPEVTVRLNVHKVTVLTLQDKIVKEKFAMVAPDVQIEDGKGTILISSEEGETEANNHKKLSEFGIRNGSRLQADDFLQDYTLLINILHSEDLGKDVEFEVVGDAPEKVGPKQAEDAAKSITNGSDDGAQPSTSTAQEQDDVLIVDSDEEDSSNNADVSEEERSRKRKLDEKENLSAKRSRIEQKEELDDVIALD
Chain of recombinant human SAE enzyme (Q9UBE0 whole entry partner): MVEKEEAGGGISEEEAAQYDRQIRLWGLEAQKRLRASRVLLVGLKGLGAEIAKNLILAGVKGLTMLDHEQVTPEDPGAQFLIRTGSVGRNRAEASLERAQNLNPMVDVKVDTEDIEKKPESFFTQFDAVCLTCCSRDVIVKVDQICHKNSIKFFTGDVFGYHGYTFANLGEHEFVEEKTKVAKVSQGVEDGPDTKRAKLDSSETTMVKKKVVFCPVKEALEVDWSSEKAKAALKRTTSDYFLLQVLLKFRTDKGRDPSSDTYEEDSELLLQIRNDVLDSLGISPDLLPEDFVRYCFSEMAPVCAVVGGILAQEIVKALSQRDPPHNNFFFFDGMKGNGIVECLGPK
On the technique in general: In TR-FRET formats the signal depends on donor and acceptor labels being close together.

Experimental findings from patent US10780090B2, “Heteroaryl compounds useful as inhibitors of SUMO activating enzyme” (Millennium Pharmaceuticals, Inc., priority 2014, dated 2020) are described below.

Structures are written as SMILES.

For orientation: IC50 means the concentration that inhibits the measured activity by half.

Take `NS(=O)(=O)OC[C@H]1C[C@@H](Nc2ncncc2C(=O)c2cc(C3NCCc4ccc(Cl)cc43)c(Cl)s2)C[C@@H]1O` (single isomer, unassigned) [I-255a, [(1R,2S,4R)-4-{[5-({5-chloro-4-[(1R)-7-chloro-1,2,3,4-tetrahydroisoquinolin-1-yl]-2-thienyl}carbonyl)pyrimidin-4-yl]amino}-2-hydroxycyclopentyl]methyl sulfamate or [(1R,2S,4R)-4-{[5-({5-chloro-4-[(1S)-7-chloro-1,2,3,4-tetrahydroisoquinolin-1-yl]-2-thienyl}carbonyl)pyrimidin-4-yl]amino}-2-hydroxycyclopentyl]methyl sulfamate]: the “Percent Inhibition” value is 93 and the IC50 was in the range of 0.01 to 0.1 µM.
As to `NS(=O)(=O)OC[C@H]1C[C@@H](Nc2ncncc2C(=O)c2cc(C3NCCc4ccc(Cl)cc43)c(Cl)s2)C[C@@H]1O` (single isomer, unassigned) [I-255b, [(1R,2S,4R)-4-{[5-({5-chloro-4-[(1R)-7-chloro-1,2,3,4-tetrahydroisoquinolin-1-yl]-2-thienyl}carbonyl)pyrimidin-4-yl]amino}-2-hydroxycyclopentyl]methyl sulfamate or [(1R,2S,4R)-4-{[5-({5-chloro-4-[(1S)-7-chloro-1,2,3,4-tetrahydroisoquinolin-1-yl-2-thienyl}carbonyl)pyrimidin-4-yl]amino}-2-hydroxycyclopentyl]methyl sulfamate], the “Percent Inhibition” value is on record as 100 and the IC50 was less than 0.01 µM.
Consider `Cc1sc(C(=O)c2cncnc2N[C@@H]2C[C@H](COS(N)(=O)=O)[C@@H](O)C2)cc1[C@@H]1OCCc2ccc(C(F)(F)F)cc21` (single isomer, unassigned) [I-258a, [(1R,2S,4R)-2-hydroxy-4-{[5-({5-methyl-4-[(1R)-7-(trifluoromethyl)-3,4-dihydro-1H-isochromen-1-yl]-2-thienyl}carbonyl)pyrimidin-4-yl]amino}cyclopentyl]methyl sulfamate or [(1R,2S,4R)-2-hydroxy-4-{[5-({5-methyl-4-[(1S)-7-(trifluoromethyl)-3,4-dihydro-1H-isochromen-1-yl]-2-thienyl}carbonyl)pyrimidin-4-yl]amino}cyclopentyl]methyl sulfamate], for which the “Percent Inhibition” value is recorded as 98 and the 50% inhibitory concentration (IC50) was less than 0.01 µM.
As for `Cc1sc(C(=O)c2cncnc2N[C@@H]2C[C@H](COS(N)(=O)=O)[C@@H](O)C2)cc1[C@@H]1OCCc2ccc(C(F)(F)F)cc21` (single isomer, unassigned) [I-258b, [(1R,2S,4R)-2-hydroxy-4-{[5-({5-methyl-4-[(1R)-7-(trifluoromethyl)-3,4-dihydro-1H-isochromen-1-yl]-2-thienyl}carbonyl)pyrimidin-4-yl]amino}cyclopentyl]methyl sulfamate or [(1R,2S,4R)-2-hydroxy-4-{[5-({5-methyl-4-[(1S)-7-(trifluoromethyl)-3,4-dihydro-1H-isochromen-1-yl]-2-thienyl}carbonyl)pyrimidin-4-yl]amino}cyclopentyl]methyl sulfamate], the “Percent Inhibition” value turned out to be 72 and the IC50 is 0.01 to 0.1 µM.
For `NS(=O)(=O)OC[C@H]1C[C@@H](Nc2ncncc2C(=O)c2cc([C@@H]3NCCc4ccc(Br)cc43)c(Cl)s2)[C@H](O)[C@@H]1O` (single isomer, unassigned) [I-259a, [(1R,2R,3S,4R)-4-{[5-({4-[(1R)-7-bromo-1,2,3,4-tetrahydroisoquinolin-1-yl]-5-chloro-2-thienyl}carbonyl)pyrimidin-4-yl]amino}-2,3-dihydroxycyclopentyl]methyl sulfamate or [(1R,2R,3S,4R)-4-{[5-({4-[(1S)-7-bromo-1,2,3,4-tetrahydroisoquinolin-1-yl]-5-chloro-2-thienyl}carbonyl)pyrimidin-4-yl]amino}-2,3-dihydroxycyclopentyl]methyl sulfamate] the same measures were 100 and less than 0.01 µM.
As for `NS(=O)(=O)OC[C@H]1C[C@@H](Nc2ncncc2C(=O)c2cc([C@@H]3NCCc4ccc(Br)cc43)c(Cl)s2)[C@H](O)[C@@H]1O` (single isomer, unassigned) [I-259b, [(1R,2R,3S,4R)-4-{[5-({4-[(1R)-7-bromo-1,2,3,4-tetrahydroisoquinolin-1-yl]-5-chloro-2-thienyl}carbonyl)pyrimidin-4-yl]amino}-2,3-dihydroxycyclopentyl]methyl sulfamate or [(1R,2R,3S,4R)-4-{[5-({4-[(1S)-7-bromo-1,2,3,4-tetrahydroisoquinolin-1-yl]-5-chloro-2-thienyl}carbonyl)pyrimidin-4-yl]amino}-2,3-dihydroxycyclopentyl]methyl sulfamate], the “Percent Inhibition” value is on record as 97 and the IC50 is less than 0.01 µM.
Turning to `Cc1sc(C(=O)c2cncnc2N[C@@H]2C[C@H](COS(N)(=O)=O)[C@@H](O)C2)cc1[C@H]1OCC(F)(F)c2ccc(Cl)nc21` (single isomer, unassigned) [I-260a, [(1R,2S,4R)-4-{[5-({4-[(8R)-2-chloro-5,5-difluoro-5,8-dihydro-6H-pyrano[3,4-b]pyridin-8-yl]-5-methyl-2-thienyl}carbonyl)pyrimidin-4-yl]amino}-2-hydroxycyclopentyl]methyl sulfamate or [(1R,2S,4R)-4-{[5-({4-[(8S)-2-chloro-5,5-difluoro-5,8-dihydro-6H-pyrano[3,4-b]pyridin-8-yl]-5-methyl-2-thienyl}carbonyl)pyrimidin-4-yl]amino}-2-hydroxycyclopentyl]methyl sulfamate], the “Percent Inhibition” value is 99 and the IC50 was less than 0.01 µM.
Turning to `Cc1sc(C(=O)c2cncnc2N[C@@H]2C[C@H](COS(N)(=O)=O)[C@@H](O)C2)cc1[C@H]1OCC(F)(F)c2ccc(Cl)nc21` (single isomer, unassigned) [I-260b, [(1R,2S,4R)-4-{[5-({4-[(8R)-2-chloro-5,5-difluoro-5,8-dihydro-6H-pyrano[3,4-b]pyridin-8-yl]-5-methyl-2-thienyl}carbonyl)pyrimidin-4-yl]amino}-2-hydroxycyclopentyl]methyl sulfamate or [(1R,2S,4R)-4-{[5-({4-[(8S)-2-chloro-5,5-difluoro-5,8-dihydro-6H-pyrano[3,4-b]pyridin-8-yl]-5-methyl-2-thienyl}carbonyl)pyrimidin-4-yl]amino}-2-hydroxycyclopentyl]methyl sulfamate], the “Percent Inhibition” value amounted to 98 and the half-maximal inhibitory concentration (IC50) is less than 0.01 µM.
Take `NS(=O)(=O)OC[C@H]1C[C@@H](Nc2ncncc2C(=O)c2cc(C3OCCc4ccc(Cl)cc43)cs2)C[C@@H]1O` (single isomer, unassigned) [I-261a, [(1R,2S,4R)-4-{[5-({4-[(1R)-7-chloro-3,4-dihydro-1H-isochromen-1-yl]-2-thienyl}carbonyl)pyrimidin-4-yl]amino}-2-hydroxycyclopentyl]methyl sulfamate or [(1R,2S,4R)-4-{[5-({4-[(1S)-7-chloro-3,4-dihydro-1H-isochromen-1-yl]-2-thienyl}carbonyl)pyrimidin-4-yl]amino}-2-hydroxycyclopentyl]methyl sulfamate]: the “Percent Inhibition” value stood at 76 and the IC50 fell in the range of 0.01 to 0.1 µM.
As to `NS(=O)(=O)OC[C@H]1C[C@@H](Nc2ncncc2C(=O)c2cc(C3OCCc4ccc(Cl)cc43)cs2)C[C@@H]1O` (single isomer, unassigned) [I-261b, [(1R,2S,4R)-4-{[5-({4-[(1R)-7-chloro-3,4-dihydro-1H-isochromen-1-yl]-2-thienyl}carbonyl)pyrimidin-4-yl]amino}-2-hydroxycyclopentyl]methyl sulfamate or [(1R,2S,4R)-4-{[5-({4-[(1S)-7-chloro-3,4-dihydro-1H-isochromen-1-yl]-2-thienyl}carbonyl)pyrimidin-4-yl]amino}-2-hydroxycyclopentyl]methyl sulfamate], the “Percent Inhibition” value came to 99 and the concentration for half-maximal inhibition (IC50) is less than 0.01 µM.
Turning to `NS(=O)(=O)OC[C@H]1C[C@@H](Nc2ncncc2C(=O)c2cc([C@@H]3NCc4ccc(Cl)cc43)c(Cl)s2)C[C@@H]1O` (single isomer, unassigned) [I-262a, [(1R,2S,4R)-4-{[5-({5-chloro-4-[(1R)-6-chloro-2,3-dihydro-1H-isoindol-1-yl]-2-thienyl}carbonyl)pyrimidin-4-yl]amino}-2-hydroxycyclopentyl]methyl sulfamate or [(1R,2S,4R)-4-{[5-({5-chloro-4-[(1S)-6-chloro-2,3-dihydro-1H-isoindol-1-yl]-2-thienyl}carbonyl)pyrimidin-4-yl]amino}-2-hydroxycyclopentyl]methyl sulfamate], the “Percent Inhibition” value is listed as 98 and the IC50 is less than 0.01 µM.
In the case of `NS(=O)(=O)OC[C@H]1C[C@@H](Nc2ncncc2C(=O)c2cc([C@@H]3NCc4ccc(Cl)cc43)c(Cl)s2)C[C@@H]1O` (single isomer, unassigned) [I-262b, [(1R,2S,4R)-4-{[5-({5-chloro-4-[(1R)-6-chloro-2,3-dihydro-1H-isoindol-1-yl]-2-thienyl}carbonyl)pyrimidin-4-yl]amino}-2-hydroxycyclopentyl]methyl sulfamate or [(1R,2S,4R)-4-{[5-({5-chloro-4-[(1S)-6-chloro-2,3-dihydro-1H-isoindol-1-yl]-2-thienyl}carbonyl)pyrimidin-4-yl]amino}-2-hydroxycyclopentyl]methyl sulfamate], the “Percent Inhibition” value came out at 98 and the IC50 is less than 0.01 µM.
In the case of `Cc1sc(C(=O)c2cncnc2N[C@@H]2C[C@H](COS(N)(=O)=O)[C@@H](O)[C@@H]2F)cc1[C@H]1OCCc2ccc(Cl)cc21` (single isomer, unassigned) [I-264a, [(1R,2R,3R,4R)-4-{[5-({4-[(1S)-7-chloro-3,4-dihydro-1H-isochromen-1-yl]-5-methyl-2-thienyl}carbonyl)pyrimidin-4-yl]amino}-3-fluoro-2-hydroxycyclopentyl]methyl sulfamate or [(1R,2R,3R,4R)-4-{[5-({4-[(1R)-7-chloro-3,4-dihydro-1H-isochromen-1-yl]-5-methyl-2-thienyl}carbonyl)pyrimidin-4-yl]amino}-3-fluoro-2-hydroxycyclopentyl]methyl sulfamate], the “Percent Inhibition” value is listed as 33 and the IC50 was 0.1 to 1 µM.
